Experimental findings from patent US20230338369A1, “COMBINATION OF A PROTEASOME INHIBITOR AND A HDAC INHIBITOR AND ITS USE FOR THE TREATMENT OF GENETIC DISEASES LINKED TO A PROTEIN CONFORMATIONAL DISORDER” (Centre d'Etude des Cellules Souches (CECS), priority 2019, published 2023) are described below.

Where two headings read alike, the source gives them in different places. Peptide text beside a SMILES is read from it. * marks the point of attachment. Cbz = O=C(OCc1ccccc1)*

One data set has as its system R77C-α-SGmCh. In words: SG localization cell-based assay: membrane rescue of R77C-α-SGmCh in immortalized LGMD-R3 patient fibroblasts. The conditions noted are these: for effect on R77C-α-SGmCh mutant protein rescue in combination with givinostat: low doses: carfilzomib 10 nM, MG132 100 nM, increasing concentrations of givinostat; for EC50: read-out: EC50, presence of R77C-α-SGmCh at the membrane. Also noted: species or system human. Here is the method:
Cells were analyzed after 24 hours of treatment.
In order to easily evaluate the membrane localization of the R77C-α-SG mutant in the heterologous condition, a system was generated that allowed the simultaneous identification of the positive cells for the exogenous protein and the quantification of the amount of protein in the cell membrane. A fusion protein was created, consisting of the coding sequence for human R77C-α-SGfused with an mCherry (mCh) fluorescent reporter at the C-terminus. A flexible linker was inserted between the two coding sequences to avoid protein interference in protein maturation and folding. The construct, hereafter termed R77C-α-SGmCh, was placed under the transcriptional control of the cytomegalovirus (CMV) promoter and inserted into a lentivirus backbone. Immortalized fibroblasts from a LGMD-R3 patient were used as cellular model because of their absence of endogenous α-SG.

For data set [1], the target named is T1, chymotrypsin-like activity of the proteasome (Homo sapiens, UniProt P28074).
T1 construct: endogenous in cells; host or cells: immortalized patient fibroblasts overexpressing R77C-α-SGmCh
In words: Proteasomal activity assay (Proteasome-Glo chymotrypsin-like cell-based assay). Conditions: for chymotrypsin-like activity of the proteasome: increasing concentrations. The protocol: Fibroblasts were seeded in 384 well plates and treated with tested combinations as indicated for 12 hours. Proteasome-Glo™ or chymotrypsin-like cell-based assay reagents were added according to manufacturer instructions (Promega). Luminescence was read using a CLARIOstar® microplate reader (BMG Labtech).

Data set [2] has as its system ubiquitinated proteins, P62, LC3BI/II, acetylated α-tubulin, α-SG. The experiment in a line: Immunoblotting of fibroblasts overexpressing R77C-α-SGmCh. Conditions: 24 hours; for ubiquitinated proteins (Western blot): 10 μM in combination with 5 nM BTZ. It is filed as cell-based, human. Here is the method: (B) Western Blot analysis of ubiquitinated proteins (top panel), P62 and LC3BI/II (middle panel) and acetylated α-tubulin (bottom panel) expression in fibroblasts overexpressing R77C-α-SGmCh and treated with DMSO 0.1%, BTZ (5 nM or 30 nM), or givinostat (10 μM) in presence or in absence of 5 nM BTZ for 24 hours.
(D) Western Blot analysis of ubiquitinated proteins (middle panel), α-SG (top panel) and acetylated α-tubulin (bottom panel) expression in fibroblasts overexpressing R77C-α-SGmCh and treated with DMSO 0.1%, BTZ (5 nM or 30 nM), or tubacin (10 μM) in presence or in absence of 5 nM BTZ for 24 hours.
Twenty-four hours after seeding, the immortalized fibroblasts expressing R77C-α-SGmCh were incubated with the tested compounds or the carrier. Cells were collected after 24 hours of treatment. Proteins were extracted by cell lysis buffer (NP40 Buffer, Thermo Scientific) and Proteases Inhibitors (Complete PIC, Roche). Proteins were separated using a 3-8% Criterion™ XT tris-acetate protein gel and then transferred to PVDF membrane with a Trans-Blot Turbo Transfert system (Biorad) using the 7 min/25V program. Detection of proteins was performed using standard Odyssey protocol by incubation with the following antibodies: • Ubiquitinated proteins: Merck, 04-263; • acetylated α-tubulin: Sigma, T6793; • P62: Abcam, ab56416; • LC3BI/II: Novus, NB600-1384.

For data set [3], the system named is fibroblasts overexpressing R77C-α-SGmCh. The experiment in a line: Viability test: count of Hoechst stained cells per field. Conditions: increasing concentrations alone or in combination with 5 nM BTZ.
Method: For overexpression of mutated α-SG and γ-SG, immortalized fibroblasts were transduced with a lentiviral vector expressing human R77C-α-SGmCh, C283Y-γ-SGmCh or E263K-γ-SGmCh with a multiplicity of infection (MOI) of 20 in the presence of 4 μg/ml of polybrene (Sigma-Aldrich). Cells were seeded on plates coated with 50 μg/ml of collagen I and maintained in a humidified atmosphere of 5% CO2 at 37-C. […] Cells were analyzed after 24 hours of treatment.
After 24 hours of drug treatment, cells were fixed in 4% paraformaldehyde (10 min, room temperature). Immunocytochemistry was performed in a phosphate-buffered saline (PBS) solution supplemented with 1% bovine serum albumin (BSA; Sigma) for blocking (1 hour, room temperature) and with a mouse anti-α-SG (NCL-L-a-SARC, Novocastra, Leica) or anti-γ-SG (NCL-L-g-SARC, Novocastra, Leica) for primary hybridization step (overnight, 4° C.). Cells were stained with a fluorophore-conjugated secondary anti-mouse antibody (Invitrogen; 1 hour, room temperature) and nuclei were visualized with Hoechst 33342 (Invitrogen). SG localization was analyzed with a CellInsight CX7 HCS Platform (Cellomics Inc). […] Pictures were acquired with a 10× objective in high-resolution camera mode and were analyzed using the colocalization bioapplication. The number of cells was monitored by counting Hoechst stained cells per field allowing quantification of the cell viability.
[4] abbreviates: 10 μM with addition of 5 nM BTZ.
The mark [5] stands for this setting: combined treatment with 5 nM BTZ.

`CC(C)C[C@H](NC(=O)[C@H](Cc1ccccc1)NC(=O)c1cnccn1)B(O)O` [bortezomib]: the R77C-α-SG degradation rescue result in the data set on R77C-α-SGmCh (5 nM BTZ) is listed as “rescuing partially”. In the data set on R77C-α-SGmCh (30 nM, 24 hours, non-permeabilized condition), the “R77C-α-SG localization in the plasma membrane” value is reported as “rescue of R77C-α-SG localization in the plasma membrane”. In addition, the “inhibition of the proteasome activity” value in data set [1] (5 nM BTZ) is “limited inhibition”.

On to `CC(C)C[C@H](NC(=O)[C@H](CCc1ccccc1)NC(=O)CN1CCOCC1)C(=O)N[C@@H](Cc1ccccc1)C(=O)N[C@@H](CC(C)C)C(=O)[C@@]1(C)CO1` [carfilzomib], for which, in the data set with R77C-α-SGmCh, the “effect on R77C-α-SGmCh mutant protein rescue in combination with givinostat” value is on record as “synergistic effect”.

As for `O=C(/C=C/c1cccc(S(=O)(=O)Nc2ccccc2)c1)NO` [belinostat], the “R77C-α-SGmCh membrane rescue (α-SG staining)” value is “low effect” in the data set with R77C-α-SGmCh (10 μM alone) and “diffuse α-SG staining suggesting a synergy with BTZ” in the data set with R77C-α-SGmCh (setting [4]). Moreover, the EC50 in the data set on R77C-α-SGmCh (setting [5]) was 300 nM; in the data set with R77C-α-SGmCh (treatment alone), 5300 nM. Moreover, in data set [1], the “chymotrypsin-like activity of the proteasome” value is on record as “no proteasomal inhibition”.

Turning to `CCN(CC)Cc1ccc2cc(COC(=O)Nc3ccc(C(=O)NO)cc3)ccc2c1` [givinostat, Givinostat], the “acetylation of α-tubulin (Western blot)” value in data set [2] (10 μM alone or in combination with 5 nM BTZ) is “induces the acetylation of α-tubulin”. Moreover, the “LC3B-I to LC3B-II conversion and P62 (Western blot)” value in data set [2] (10 μM combined with 5 nM BTZ) is reported as “increasing conversion of LC3B-I to LC3B-II with P62 accumulation”. Moreover, the “ubiquitinated proteins (Western blot)” value in data set [2] is listed as “synergistic accumulation of ubiquitinated proteins”. In addition, the entries for the “R77C-α-SGmCh membrane rescue (α-SG staining)” value with R77C-α-SGmCh (10 μM alone) and with R77C-α-SGmCh (setting [4]) were “low effect” and “diffuse α-SG staining suggesting a synergy with BTZ”, respectively. For the same compound, the values for the EC50 with R77C-α-SGmCh (setting [5]) and in the data set with R77C-α-SGmCh (treatment alone) were 800 nM and 3000 nM, respectively. Besides, the “chymotrypsin-like activity of the proteasome” value in data set [1] was “no proteasomal inhibition”.

In the case of `CC(C)C[C@@H](C=O)NC(=O)[C@H](CC(C)C)NC(=O)[C@H](CC(C)C)NC(=O)OCc1ccccc1` [MG132] (Cbz-Leu-Leu-Leu-aldehyde), the “effect on R77C-α-SGmCh mutant protein rescue in combination with givinostat” value with R77C-α-SGmCh was “synergistic effect”.

As for `O=C(CCCCCCC(=O)Nc1ccc([C@H]2O[C@@H](CSc3nc(-c4ccccc4)c(-c4ccccc4)o3)C[C@@H](c3ccc(CO)cc3)O2)cc1)NO` [tubacin, Tubacin], in data set [2] (10 μM combined with 5 nM BTZ), the “acetylation of α-tubulin (Western blot)” value was “acetylation of a-tubulin”. The “α-SG protein levels (Western blot)” value in data set [2] (10 μM combined with 5 nM BTZ) is “increased α-SG protein levels”. Besides, in data set [2], the “ubiquitinated proteins (Western blot)” value was “synergistic accumulation of ubiquitinated proteins”. In addition, the cell toxicity entry in data set [3] is given as “in the same range than givinostat”. Also, the “membrane R77C-α-SGmCh expression” value in the data set on R77C-α-SGmCh (in combination with 5 nM BTZ) was “synergistic effect”; in the data set with R77C-α-SGmCh (increasing concentrations, alone) it was “induced a dose-response curve”.
